These results are taken from ChEMBL document CHEMBL1148090, “Antibacterial and antifungal sulfated alkane and alkenes from the hepatopancreas of the ascidian Halocynthia roretzi” (1994).

In assay [1] the test system is Umbelopsis ramanniana. Description: Antimicrobial activity against Mortierella ramanniana at 0.2 ug/disk after 24 hrs by paper disk method. Format: functional. To be noted: read-out: IZ.
The test system of assay [2] is Vibrio alginolyticus. Description: Antimicrobial activity against Vibrio alginolyticus ATCC 17749 at 0.2 ug/disk after 24 hrs by paper disk method. The assay is classed as functional. Particulars: ATCC 17749, 24 h, read-out: IZ.

Each structure is given as a SMILES string.

As to `CC(C)CCCC(C)COS(=O)(=O)O` (stereo not drawn), the zone of inhibition at 0.2 µg/disc was 10 mm in assay [1] and 12 mm in assay [2].

With `CC/C=C\C/C=C\CCCOS(=O)(=O)O`, the zone of inhibition at 0.2 µg/disc was determined as 10 mm in assay [1] and 12 mm in assay [2].

With `CC/C=C/C/C=C\CCCOS(=O)(=O)O`, the zone of inhibition at 0.2 µg/disc came to 10 mm in assay [1] and 12 mm in assay [2].

For the molecule `C=CC/C=C\C/C=C\CCOS(=O)(=O)O`, the zone of inhibition at 0.2 µg/disc in assay [1] was 10 mm; in assay [2], 12 mm.
